According to patent US8530472B2, “Ethynyl derivatives” (Hoffmann-La Roche Inc., priority 2011, dated 2013):

Biological target: T1, human mGlu5a receptor (Homo sapiens, UniProt P41594)
T1 construct: expressed in transfected cells
Experiment: Intracellular Ca2+ mobilization assay (mGlu5 PAM)
Format: cell-based
Conditions: for Emax: HEK293, maximal response in % of the maximal stimulatory effect obtained with saturating concentrations of L-glutamate, HEK-293 human mGlu5a cells, read-out: Eff. (%); for EC50: HEK-293 cells stably transfected with human mGlu5a receptor, L-glutamate added at EC20 (typically around 80 μM) after 10-30 min pre-incubation with test compound, read-out: EC50 (nM) mGlu5PAM
Method: A monoclonal HEK-293 cell line stably transfected with a cDNA encoding for the human mGlu5a receptor was generated; for the work with mGlu5 Positive Allosteric Modulators (PAMs), a cell line with low receptor expression levels and low constitutive receptor activity was selected to allow the differentiation of agonistic versus PAM activity. Cells were cultured according to standard protocols (Freshney, 2000) in Dulbecco's Modified Eagle Medium with high glucose supplemented with 1 mM glutamine, 10% (vol/vol) heat-inactivated bovine calf serum, Penicillin/Streptomycin, 50 μg/ml hygromycin and 15 μg/ml blasticidin (all cell culture reagents and antibiotics from Invitrogen, Basel, Switzerland).
About 24 hrs before an experiment, 5×10^4 cells/well were seeded in poly-D-lysine coated, black/clear-bottomed 96-well plates. The cells were loaded with 2.5 μM Fluo-4AM in loading buffer (1×HBSS, 20 mM HEPES) for 1 hr at 37° C. and washed five times with loading buffer. The cells were transferred into a Functional Drug Screening System 7000 (Hamamatsu, Paris, France), and 11 half logarithmic serial dilutions of test compound at 37° C. were added and the cells were incubated for 10-30 min. with on-line recording of fluorescence. Following this pre-incubation step, the agonist L-glutamate was added to the cells at a concentration corresponding to EC20 (typically around 80 μM) with on-line recording of fluorescence; in order to account for day-to-day variations in the responsiveness of cells, the EC20 of glutamate was determined immediately ahead of each experiment by recording of a full dose-response curve of glutamate.
Responses were measured as peak increase in fluorescence minus basal (i.e. fluorescence without addition of L-glutamate), normalized to the maximal stimulatory effect obtained with saturating concentrations of L-glutamate. Graphs were plotted with the % maximal stimulatory using XLfit, a curve fitting program that iteratively plots the data using Levenburg Marquardt algorithm. The single site competition analysis equation used was y=A+((B−A)/(1+((x/C)D))), where y is the % maximal stimulatory effect, A is the minimum y, B is the maximum y, C is the EC50, x is the log 10 of the concentration of the competing compound and D is the slope of the curve (the Hill Coefficient). From these curves the EC50 (concentration at which half maximal stimulation was achieved), the Hill coefficient as well as the maximal response in % of the maximal stimulatory effect obtained with saturating concentrations of L-glutamate were calculated.
A depression of the signal observed after addition of the EC20 concentration of L-glutamate was indicative of an inhibitory activity of the test compound.

T1 sequence (P41594 21-1180 isoform P41594-2 limits assumed): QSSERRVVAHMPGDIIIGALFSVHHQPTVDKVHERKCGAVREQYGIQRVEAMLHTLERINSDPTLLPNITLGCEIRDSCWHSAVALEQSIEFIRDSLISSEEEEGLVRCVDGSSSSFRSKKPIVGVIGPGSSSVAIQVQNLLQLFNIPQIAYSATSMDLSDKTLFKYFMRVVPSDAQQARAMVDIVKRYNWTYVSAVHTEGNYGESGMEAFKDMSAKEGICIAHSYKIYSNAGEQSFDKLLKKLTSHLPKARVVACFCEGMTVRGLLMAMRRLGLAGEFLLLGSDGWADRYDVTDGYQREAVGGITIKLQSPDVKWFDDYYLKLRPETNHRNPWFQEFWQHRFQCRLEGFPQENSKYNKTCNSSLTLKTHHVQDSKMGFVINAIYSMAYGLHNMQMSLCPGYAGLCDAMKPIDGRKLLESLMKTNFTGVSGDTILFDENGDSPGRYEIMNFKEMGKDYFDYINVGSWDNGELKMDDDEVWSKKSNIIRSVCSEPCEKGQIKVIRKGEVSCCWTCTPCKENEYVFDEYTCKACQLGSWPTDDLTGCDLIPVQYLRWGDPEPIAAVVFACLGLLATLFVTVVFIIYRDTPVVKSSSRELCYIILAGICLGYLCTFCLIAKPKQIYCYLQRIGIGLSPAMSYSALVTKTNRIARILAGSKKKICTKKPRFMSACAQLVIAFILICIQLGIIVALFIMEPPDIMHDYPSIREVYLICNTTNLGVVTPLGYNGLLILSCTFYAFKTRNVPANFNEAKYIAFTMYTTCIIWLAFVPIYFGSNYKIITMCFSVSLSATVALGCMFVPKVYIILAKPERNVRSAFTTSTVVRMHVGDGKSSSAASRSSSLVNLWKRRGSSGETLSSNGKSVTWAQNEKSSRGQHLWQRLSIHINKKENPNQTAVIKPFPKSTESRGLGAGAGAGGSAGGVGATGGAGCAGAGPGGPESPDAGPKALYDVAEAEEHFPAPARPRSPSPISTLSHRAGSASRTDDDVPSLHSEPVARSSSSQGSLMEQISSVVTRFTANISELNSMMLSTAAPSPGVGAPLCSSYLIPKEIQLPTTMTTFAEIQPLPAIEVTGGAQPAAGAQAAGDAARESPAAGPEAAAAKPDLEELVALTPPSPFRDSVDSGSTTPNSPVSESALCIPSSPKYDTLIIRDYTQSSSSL

Compound | Emax [%] | EC50 [nM]
COC(C)(C)C(=O)Nc1ccc(C#Cc2cccc(F)c2)cn1 [Example 13, N-[5-(3-Fluoro-phenylethynyl)-pyridin-2-yl]-2-methoxy-2-methyl-propionamide] | 54 | 85
CN(C(=O)C(C)(C)C)c1ncc(C#Cc2ccccc2)cn1 [Example 8, 2,2,N-Trimethyl-N-(5-phenylethynyl-pyrimidin-2-yl)-propionamide] | 74 | 52
CCCCC(=O)Nc1ccc(C#Cc2ccccc2)cn1 [Example 3, Pentanoic acid (5-phenylethynyl-pyridin-2-yl)-amide] | 84 | 48
COC(C)(C)C(=O)Nc1ccc(C#Cc2ccccc2)cn1 [Example 12, 2-Methoxy-2-methyl-N-(5-phenylethynyl-pyridin-2-yl)-propionamide] | 68 | 77
COC(C)(C)C(=O)Nc1ccc(C#Cc2cc(F)ccc2F)cn1 [Example 14, N-[5-(2,5-Difluoro-phenylethynyl)-pyridin-2-yl]-2-methoxy-2-methyl-propionamide] | 47 | 94
CC(C)CC(=O)Nc1ccc(C#Cc2ccccc2)cn1 [Example 4, 3-Methyl-N-(5-phenylethynyl-pyridin-2-yl)-butyramide] | 83 | 71
CC(C)(C)C(=O)Nc1ccc(C#Cc2ccccc2)cn1 [Example 1, 2,2-Dimethyl-N-(5-phenylethynyl-pyridin-2-yl)-propionamide] | 72 | 19
CC(C)(C)C(=O)Nc1ccc(C#Cc2ccccc2)nn1 [Example 9, 2,2-Dimethyl-N-(6-phenylethynyl-pyridazin-3-yl)-propionamide] | 73 | 6
CC(C)(C)C(=O)Nc1ncc(C#Cc2ccccc2)cn1 [Example 7, 2,2-Dimethyl-N-(5-phenylethynyl-pyrimidin-2-yl)-propionamide] | 59 | 56
COCC(=O)Nc1ccc(C#Cc2ccccc2)cn1 [Example 10, 2-Methoxy-N-(5-phenylethynyl-pyridin-2-yl)-acetamide] | 43 | 49
CC(C)(C)C(=O)Nc1ccc(C#Cc2cccc(Cl)c2)nn1 [Example 16, N-[6-(3-Chloro-phenylethynyl)-pyridazin-3-yl]-2,2-dimethyl-propionamide] | 45 | 7
CC(C)(C(=O)Nc1ccc(C#Cc2cccc(Cl)c2)cn1)C(F)(F)F [Example 15, N-[5-(3-Chloro-phenylethynyl)-pyridin-2-yl]-3,3,3-trifluoro-2,2-dimethyl-propionamide] | 46 | 19
CCCC(=O)Nc1ccc(C#Cc2ccccc2)cn1 [Example 2, N-(5-Phenylethynyl-pyridin-2-yl)-butyramide] | 52 | 70
CCCC(C)C(=O)Nc1ccc(C#Cc2ccccc2)cn1 (racemic) [Example 5, (RS)-2-Methyl-pentanoic acid (5-phenylethynyl-pyridin-2-yl)-amide] | 75 | 48
CSCC(=O)Nc1ccc(C#Cc2ccccc2)cn1 [Example 6, 2-Methylsulfanyl-N-(5-phenylethynyl-pyridin-2-yl)-acetamide] | 47 | 18
CC(C)(C)C(=O)Nc1ccc(C#Cc2cccc(F)c2)cn1 [Example 11, N-[5-(3-Fluoro-phenylethynyl)-pyridin-2-yl]-2,2-dimethyl-propionamide] | 44 | 15
